Results from US3955959A, “Herbicide for use in transplanted rice” (priority 1974, dated 1976).

What was measured:
[1] = test system: Monochoria vaginalis; assay: Example 2 field test, weed control, Chia Yi, Taiwan; assay type: in vivo; details: obs. 63 DAT
Procedure: (§5) In the field tests of the herbicide of this invention with transplanted rice, the rice seedlings were grown in conventional manner, by seeding the rice in a typical seedbed of sandy loam to clay soil of the country wherein the test was conducted. For laboratory and greenhouse work the seedlings were obtained by seeding rice in a mixture of soil, e.g., Ray silt loam, and peat in wood flats. For purposes of testing the herbicides on younger rice seedlings (infant or Dapog) the rice was usually allowed to grow for 6-15 days before lifting for transplanting. Older (ordinary) rice plants were usually grown for a period of about 2-3 weeks, or as much as about 7 weeks before lifting. Since the period of growth is dependent upon climatic conditions, a better measure of when to transplant the rice seedling is the leaf stage of growth; for infant or Dapog rice the seedling is lifted at the 1.5-2 leaf stage of growth, and for ordinary seedlings at the 2.5-5 leaf stage. The seedlings were then transplanted to the test plots for evaluation of the herbicide for injury against weed species present with the transplanted rice. The herbicides were then applied to the growth medium of the weeds and transplant rice, either preemergent or postemergent with respect to the weeds and postemergent with respect to the transplanted rice. […] Application rates given in the tables refer to the amount of active ingredient used.

[2] = test system: Cyperus difformis; assay: as above; assay type: in vivo; details: obs. 63 DAT
Procedure: as §5

[3] = test system: Grass: Ec and Ecol (Echinochloa crusgalli, Echinochloa colonum); assay: Example 3 field test on Dapog rice, weed control, Munoz, Philippines; assay type: in vivo; details: obs. 42 DAT
Source text: (§1) Treatments were replicated four times.

[4] = test system: Sedges: Cd, Ci, Fl (Cyperus difformis, Cyperus iria, Fimbristylis littoralis); assay: as above; assay type: in vivo; details: obs. 42 DAT
Source text: as §1

[5] = test system: transplanted rice; assay: Example 2 field test, rice yield; assay type: in vivo, rice (Tainan No. 5, japonica)
Procedure: (§2) In the tests described in the tables below, the herbicides were formulated and used in granular form in conventional manner. […] The commercial herbicide used was a granular product having 5% active ingredient.
(§3) In the field tests of the herbicide of this invention with transplanted rice, the rice seedlings were grown in conventional manner, by seeding the rice in a typical seedbed of sandy loam to clay soil of the country wherein the test was conducted. For laboratory and greenhouse work the seedlings were obtained by seeding rice in a mixture of soil, e.g., Ray silt loam, and peat in wood flats. For purposes of testing the herbicides on younger rice seedlings (infant or Dapog) the rice was usually allowed to grow for 6-15 days before lifting for transplanting. Older (ordinary) rice plants were usually grown for a period of about 2-3 weeks, or as much as about 7 weeks before lifting. Since the period of growth is dependent upon climatic conditions, a better measure of when to transplant the rice seedling is the leaf stage of growth; for infant or Dapog rice the seedling is lifted at the 1.5-2 leaf stage of growth, and for ordinary seedlings at the 2.5-5 leaf stage. The seedlings were then transplanted to the test plots for evaluation of the herbicide for injury against weed species present with the transplanted rice. The herbicides were then applied to the growth medium of the weeds and transplant rice, either preemergent or postemergent with respect to the weeds and postemergent with respect to the transplanted rice. Application times are designated in the tables as "DAT", meaning "days after transplant". Application rates given in the tables refer to the amount of active ingredient used.
(§4) Rice seedlings (ordinary) of Tainan No. 5 variety (japonica) were transplanted at 19 days of growth. Granular formulations of Herbicides A and B were applied at the 1 leaf stage of grass weed (4 DAT) and 2.5 leaf stage of grass weed (10 DAT). Observations were made at 63 DAT and results reported in Table 2 as an average of 3 replications.

[6] = test system: ordinary transplanted rice; assay: Example 4 field test, crop injury; details: obs. 36 DAT
Procedure: as §2, §3
In this example comparative field tests were conducted with Herbicides A and B on ordinary transplanted rice at Munoz, Philippines.
Twenty-one (21) day-old ordinary wet bed seedlings of the Fortuna variety were transplanted to field plots and Herbicides A and B applied at 5 DAT and 14 DAT. The field plots were overseeded with barnyardgrass (E. crusgalli) at 2 kgs/ha. Treatments were replicated four times.

[7] = test system: transplanted rice; assay: Example 2 field test, crop injury; details: obs. 63 DAT
Procedure: as §2, §3, §4

[8] = test system: transplanted rice; assay: Example 1 field test, rice injury; assay type: in vivo, rice (Watanabe variety)
Source text: In the field test 48 day-old seedlings (Watanabe variety) were transplanted to plots 2.5 × 6 m. seeded with the weed seeds indicated in Table 1. At 5 and 10 DAT periods, the herbicides were applied to the plants (now at the 1.2 and 2.0 leaf stage, respectively, of grass weed) at the indicated rate in kilograms per hectare (kg/ha). The weed control and rice injury results for 3 replications are reported in percentages as of the indicated times of observation. The percentages given in the "Perennials" column are based on the weight of the weeds at 63 DAT, i.e., 42 gms/3.6 m^2 for the weedy check.

[9] = test system: Echinochloa crusgalli; assay: Example 2 field test, weed control, Chia Yi, Taiwan; assay type: in vivo; details: obs. 63 DAT
Procedure: as §5

[10] = test system: Obw (other broadleaf weeds); assay: Example 5 field test, weed control, JAAPR, Japan; assay type: in vivo; details: 1.5 kg/ha, 7 DAT
Procedure: The rice seedlings were grown to the 1.7 leaf stage for infant seedlings and to the 5.5 leaf stage for ordinary seedlings. Two days after puddling the soil in which the seedlings were to be transplanted, both infant and ordinary seedlings were transplanted into plots 8.5 m^2.
The weed symbol "Obw" represents "other broadleaf weeds" of unspecified identity.

CCCCOCN(C(=O)CCl)c1c(CC)cccc1CC [Herbicide B, n-(butoxymethyl)-2',6'-diethyl-2-chloroacetanilide, reference compound]
99%: % Weed Control (Monochoria Vaginalis) ([1]; 4 DAT, 3.0 kg/ha) | Yield (% of H.W. Check) ([5]; 4 DAT, 3.0 kg/ha) | Yield (% of H.W. Check) ([5]; 10 DAT, 3.0 kg/ha)
70%: % Weed control, Sedges (Cd, Ci, Fl) ([4]; 14 DAT, 3.0 kg/ha)
110%: Yield (% of H.W. Check) ([5]; 4 DAT, 1.0 kg/ha)
78%: % Weed Control (Monochoria Vaginalis) ([1]; 10 DAT, 1.5 kg/ha) | % Weed Control (Echinochloa crusgalli) ([9]; 10 DAT, 1.5 kg/ha)
77%: % Weed Control (Monochoria Vaginalis) ([1]; 4 DAT, 1.0 kg/ha) | % Weed Control (Echinochloa crusgalli) ([9]; 10 DAT, 1.0 kg/ha)
103%: Yield (% of H.W. Check) ([5]; 4 DAT, 1.5 kg/ha)
92%: % Weed Control (Echinochloa crusgalli) ([9]; 4 DAT, 1.5 kg/ha)
89%: % Weed Control (Monochoria Vaginalis) ([1]; 10 DAT, 3.0 kg/ha)
94%: % Weed Control (Monochoria Vaginalis) ([1]; 4 DAT, 1.5 kg/ha)
60%: % Weed control, Grass (Ec and Ecol) ([3]; 14 DAT, 3.0 kg/ha)
97%: Yield (% of H.W. Check) ([5]; 10 DAT, 1.0 kg/ha) | % Weed Control (Echinochloa crusgalli) ([9]; 4 DAT, 3.0 kg/ha)
complete control: control of Obw in words [10]
98%: Yield (% of H.W. Check) ([5]; 10 DAT, 1.5 kg/ha) | % Weed Control (Echinochloa crusgalli) ([9]; 10 DAT, 3.0 kg/ha)
0%: % Weed control, Grass (Ec and Ecol) ([3]; 14 DAT, 1.0 kg/ha) | % Weed control, Grass (Ec and Ecol) ([3]; 14 DAT, 1.5 kg/ha) | % Weed control, Sedges (Cd, Ci, Fl) ([4]; 14 DAT, 1.0 kg/ha) | % Weed control, Sedges (Cd, Ci, Fl) ([4]; 14 DAT, 1.5 kg/ha) | Crop Injury (%) ([6]; 5 DAT, 1.0 kg/ha) | Crop Injury (%) ([6]; 5 DAT, 1.5 kg/ha) | Crop Injury (%) ([6]; 5 DAT, 3.0 kg/ha) | Crop Injury (%) ([6]; 14 DAT, 1.0 kg/ha) | Crop Injury (%) ([6]; 14 DAT, 1.5 kg/ha) | Crop Injury (%) ([6]; 14 DAT, 3.0 kg/ha) | % Crop Injury, stand ([7]; 4 DAT, 1.0 kg/ha) | % Crop Injury, vigor ([7]; 4 DAT, 1.0 kg/ha) | % Crop Injury, stand ([7]; 4 DAT, 1.5 kg/ha) | % Crop Injury, vigor ([7]; 4 DAT, 1.5 kg/ha) | % Crop Injury, stand ([7]; 4 DAT, 3.0 kg/ha) | % Crop Injury, vigor ([7]; 4 DAT, 3.0 kg/ha) | % Crop Injury, stand ([7]; 10 DAT, 1.0 kg/ha) | % Crop Injury, vigor ([7]; 10 DAT, 1.0 kg/ha) | % Crop Injury, stand ([7]; 10 DAT, 1.5 kg/ha) | % Crop Injury, vigor ([7]; 10 DAT, 1.5 kg/ha) | % Crop Injury, stand ([7]; 10 DAT, 3.0 kg/ha) | % Crop Injury, vigor ([7]; 10 DAT, 3.0 kg/ha) | % Rice Injury ([8]; 5 DAT, 1.0 kg/ha, obs. 21 DAT) | % Rice Injury ([8]; 5 DAT, 1.0 kg/ha, obs. 42 DAT) | % Rice Injury ([8]; 5 DAT, 1.5 kg/ha, obs. 21 DAT) | % Rice Injury ([8]; 5 DAT, 1.5 kg/ha, obs. 42 DAT) | % Rice Injury ([8]; 5 DAT, 3.0 kg/ha, obs. 42 DAT) | % Rice Injury ([8]; 10 DAT, 1.0 kg/ha, obs. 21 DAT) | % Rice Injury ([8]; 10 DAT, 1.0 kg/ha, obs. 42 DAT) | % Rice Injury ([8]; 10 DAT, 1.5 kg/ha, obs. 21 DAT) | % Rice Injury ([8]; 10 DAT, 1.5 kg/ha, obs. 42 DAT) | % Rice Injury ([8]; 10 DAT, 3.0 kg/ha, obs. 21 DAT) | % Rice Injury ([8]; 10 DAT, 3.0 kg/ha, obs. 42 DAT)
5%: % Rice Injury ([8]; 5 DAT, 3.0 kg/ha, obs. 21 DAT)
100%: % Weed Control (Cyperus difformis) ([2]; 4 DAT, 1.0 kg/ha) | % Weed Control (Cyperus difformis) ([2]; 4 DAT, 1.5 kg/ha) | % Weed Control (Cyperus difformis) ([2]; 4 DAT, 3.0 kg/ha) | % Weed Control (Cyperus difformis) ([2]; 10 DAT, 1.0 kg/ha) | % Weed Control (Cyperus difformis) ([2]; 10 DAT, 1.5 kg/ha) | % Weed Control (Cyperus difformis) ([2]; 10 DAT, 3.0 kg/ha) | % Weed control, Grass (Ec and Ecol) ([3]; 5 DAT, 1.0 kg/ha) | % Weed control, Grass (Ec and Ecol) ([3]; 5 DAT, 1.5 kg/ha) | % Weed control, Grass (Ec and Ecol) ([3]; 5 DAT, 3.0 kg/ha) | % Weed control, Sedges (Cd, Ci, Fl) ([4]; 5 DAT, 1.0 kg/ha) | % Weed control, Sedges (Cd, Ci, Fl) ([4]; 5 DAT, 1.5 kg/ha) | % Weed control, Sedges (Cd, Ci, Fl) ([4]; 5 DAT, 3.0 kg/ha) | % Weed Control (Obw) ([10]; infant seedlings)
65%: % Weed Control (Monochoria Vaginalis) ([1]; 10 DAT, 1.0 kg/ha) | % Weed Control (Echinochloa crusgalli) ([9]; 4 DAT, 1.0 kg/ha)
71%: % Weed Control (Obw) ([10]; ordinary seedlings)
